# Measured values from PubChem BioAssay (NCI).
#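 The concentration for 50% growth inhibition is given as GI50. TGI marks complete inhibition of growth.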
# What was measured:
# Test in all cases: DTP human tumour cell line panel, 384-well format
# [1] = system: MALME-3M melanoma
# [2] = system: U251 glioblastoma
# [3] = system: SK-MEL-2 melanoma
# [4] = system: MDA-MB-468 breast
# [5] = system: IGROV1 ovarian
# [6] = system: CAKI-1 renal
# [7] = system: SK-OV-3 ovarian
# [8] = system: SNB-75 CNS
# [9] = system: SN12C renal
# [10] = system: SF-295 CNS
# [11] = system: NCI-H322M lung
# [12] = system: KM12 colon
# [13] = system: HL-60(TB) leukemia
# [14] = system: SNB-19 CNS
# [15] = system: M14 melanoma
# [16] = system: UO-31 renal
# [17] = system: NCI-H522 lung
# [18] = system: K-562 leukemia
# [19] = system: PC-3 prostate
# [20] = system: UACC-62 melanoma
# [21] = system: HOP-62 NSCLC
# [22] = system: DU-145 prostate
# [23] = system: A549 NSCLC
# [24] = system: SW-620 colon
# [25] = system: NCI-H23 lung
# [26] = system: HOP-92 NSCLC
# [27] = system: HCT-15 colon
# [28] = system: CCRF-CEM leukemia
# [29] = system: SF-268 CNS
# [30] = system: OVCAR-4 ovarian
# [31] = system: A498 renal
# [32] = system: MCF7 breast
# [33] = system: HS 578T breast
# [34] = system: NCI-H226 lung
# [35] = system: LOX IMVI melanoma
# [36] = system: TK-10 renal
# [37] = system: MDA-MB-435 melanoma
# [38] = system: OVCAR-5 ovarian
# [39] = system: NCI/ADR-RES ovarian
# [40] = system: BT-549 breast
# [41] = system: SK-MEL-28 melanoma
# [42] = system: MOLT-4 leukemia
# [43] = system: SF-539 CNS
# [44] = system: HT29 colon
# [45] = system: RPMI-8226 leukemia
# [46] = system: HCT-116 colon
# [47] = system: RXF 393 renal
# [48] = system: UACC-257 melanoma
# [49] = system: OVCAR-3 ovarian
# [50] = system: ACHN renal
# [51] = system: OVCAR-8 ovarian
# [52] = system: T-47D breast
# [53] = system: MDA-MB-231 breast
# [54] = system: EKVX NSCLC
# [55] = system: 786-0 renal
smiles,measurement,setting,value
N[C@@H]1CCCC[C@H]1N.O=C([O-])C(=O)[O-].[Pt+4],GI50,[1],10.7 µM
same,TGI,[1],22.8 µM
same,GI50,[2],8.83 µM
same,TGI,[2],> 100 µM
same,GI50,[3],75.9 µM
same,TGI,[3],> 100 µM
same,GI50,[4],2.33 µM
same,TGI,[4],7.94 µM
same,GI50,[5],16.7 µM
same,TGI,[5],> 100 µM
same,GI50,[6],1.03 µM
same,TGI,[6],31.3 µM
same,GI50,[7],31 µM
same,TGI,[7],> 100 µM
same,GI50,[8],30 µM
same,TGI,[8],> 100 µM
same,GI50,[9],7.27 µM
same,TGI,[9],> 100 µM
same,GI50,[10],27.4 µM
same,TGI,[10],> 100 µM
same,GI50,[11],> 100 µM
same,TGI,[11],> 100 µM
same,GI50,[12],20.8 µM
same,TGI,[12],> 100 µM
same,GI50,[13],0.523 µM
same,TGI,[13],1.82 µM
same,GI50,[14],58.3 µM
same,TGI,[14],> 100 µM
same,GI50,[15],8.78 µM
same,TGI,[15],52.6 µM
same,GI50,[16],10.4 µM
same,TGI,[16],25.5 µM
same,GI50,[17],10.1 µM
same,TGI,[17],21.7 µM
same,GI50,[18],4.56 µM
same,TGI,[18],21.5 µM
same,GI50,[19],8.53 µM
same,TGI,[19],> 100 µM
same,GI50,[20],3.15 µM
same,TGI,[20],25.1 µM
same,GI50,[21],7.92 µM
same,TGI,[21],> 100 µM
same,GI50,[22],7.47 µM
same,TGI,[22],36 µM
same,GI50,[23],2.61 µM
same,TGI,[23],> 100 µM
same,GI50,[24],0.951 µM
same,TGI,[24],55.8 µM
same,GI50,[25],8.68 µM
same,TGI,[25],28.8 µM
same,GI50,[26],32.3 µM
same,TGI,[26],> 100 µM
same,GI50,[27],4.11 µM
same,TGI,[27],40.8 µM
same,GI50,[28],2.13 µM
same,TGI,[28],4.74 µM
same,GI50,[29],11 µM
same,TGI,[29],> 100 µM
same,GI50,[30],19.8 µM
same,TGI,[30],> 100 µM
same,GI50,[31],0.939 µM
same,TGI,[31],54.1 µM
same,GI50,[32],5.43 µM
same,TGI,[32],> 100 µM
same,GI50,[33],> 100 µM
same,TGI,[33],> 100 µM
same,GI50,[34],12.5 µM
same,TGI,[34],48.4 µM
same,GI50,[35],12.2 µM
same,TGI,[35],> 100 µM
same,GI50,[36],11.2 µM
same,TGI,[36],> 100 µM
same,GI50,[37],9.49 µM
same,TGI,[37],> 100 µM
same,GI50,[38],8.06 µM
same,TGI,[38],47.8 µM
same,GI50,[39],20.2 µM
same,TGI,[39],> 100 µM
same,GI50,[40],12.1 µM
same,TGI,[40],27.8 µM
same,GI50,[41],14.6 µM
same,TGI,[41],63.9 µM
same,GI50,[42],0.276 µM
same,TGI,[42],0.7 µM
same,GI50,[43],6.07 µM
same,TGI,[43],35.5 µM
same,GI50,[44],3.78 µM
same,TGI,[44],> 100 µM
same,GI50,[45],0.403 µM
same,TGI,[45],1.85 µM
same,GI50,[46],3.36 µM
same,TGI,[46],> 100 µM
same,GI50,[47],10.6 µM
same,TGI,[47],23.7 µM
same,GI50,[48],24.1 µM
same,TGI,[48],> 100 µM
same,GI50,[49],8.13 µM
same,TGI,[49],30.6 µM
same,GI50,[50],2.88 µM
same,TGI,[50],20.4 µM
same,GI50,[51],6.15 µM
same,TGI,[51],> 100 µM
same,GI50,[52],12.7 µM
same,TGI,[52],> 100 µM
same,GI50,[53],25.8 µM
same,TGI,[53],> 100 µM
same,GI50,[54],> 100 µM
same,TGI,[54],> 100 µM
same,GI50,[55],3.2 µM
same,TGI,[55],98.7 µM
